# Source: patent publication US10166267B1, “Multi-component formulations for the treatment of cognitive decline including Alzheimer's disease” (priority 2010, dated 2019)
# How the values were obtained:
# primary chicken neurons = assay: MTT cell viability assay on primary chicken neurons, components applied for forty-eight hours; assay type: cell-based; conditions: for effect on cell viability: 48 h
# Procedure: Further tests were conducted to assess the neuroprotective effects of a number of the components previously disclosed herein at various concentrations on primary chicken neurons, individually and in select combinations. The study components were applied to test specimens obtained on embryonic day 8 in vitro (“DIV8”) for a period of forty-eight hours, after which, the test specimens were evaluated in accordance with MTT assay to determine cell viability.
# One day old fertilized eggs were stored under appropriate conditions until the start of breeding. On embryonic day zero, eggs were transferred to a breeding incubator and maintained under turning at 37.8° C. and 55% humidity until embryonic day eight.
# All cell culture experiments were carried out under sterile conditions and all procedures were performed in a cell culture unit with special cell culture equipment. Glassware, forceps ad/or scissors were sterilized prior to experiments. Stock chemical solutions were obtained sterile, and final solution and culture medium were prepared fresh in a laminar airflow cabinet.
# Neurons were prepared as follows. DIV8 embryos were transferred to plastic dish and decapitated. Bother hemispheres were removed, collected, and cleaned from any loose tissue. Hemispheres were then mechanically disassociated and 4.8×10^4 cells per well in a 96-well plate, and each well was seeded with 160 μL.
# The cell culture medium for chicken telencephalon neurons consists of DMEM with 4.5 grams glucose, 5% Nu Serum, 0.01% gentamycin, and 2 mM L-glutamine. Cultures are maintained at 37° C., 95% humidity and 5% CO2.
# The study component(s) and vehicle controls (“VC”) were applied to chicken neurons at DIVE for forty-eight hours. The viability of the chicken neurons at DIV10 were determined according to an MTT cell viability assay.
# MTT Cell Viability Assay: The viability of the chicken neurons were determined by MTT assay using a plate reader at 570 nanometers as described in SOP MET004. The assay measures the mitochondrial dehydrogenase activity which reduces yellow MTT to dark blue formazan crystals. As the reaction is catalyzed only in living cells, the assay is used to determine cell viability. MTT is added to each well at a concentration of 0.5 milligrams per milliliter. After two hours, the MTT containing medium is aspirated. Cells are lysed in 3% SDS and the formazan crystals are dissolved in isopropanol/hydrochloric acid. Optical density is measured with a plate-reader at a wavelength of 570 nanometers.
# Cell survival rate is expressed as optical density, and values are calculated as a percentage of the vehicle control values, the vehicle control being 100%.
# [1] = cited from earlier work
structure (smiles),measurement,setting,value
"COc1cc(/C=C/C(=O)CC(=O)/C=C/c2ccc(O)c(OC)c2)ccc1O [Curcumin, curcumin]","protective effects, curcumin alone vs in combination with MSM/FDP","primary chicken neurons; Part 3, curcumin applied alone",protective effects only in combinations with MSM/FDP but not when applied alone
same,effect on cell viability,"primary chicken neurons; curcumin 50, 20, 10 and 5 μM, vs vehicle",negative effects on cell viability
same,effect on cell viability,"primary chicken neurons; curcumin lowest concentration 0.01 μM, vs vehicle",positive influence on cell viability
"C[S+](C)[O-] [DMSO, Dimethyl sulfoxide]",effect on cell viability,"primary chicken neurons; DMSO 5%, vs vehicle treated cells",toxic effects
same,effect on cell viability,"primary chicken neurons; DMSO, all other concentrations tested, vs vehicle treated cells",minor negative effect on cell viability
same,DMSO converted to MSM in the body,[1],approximately 15%
"O=C(COP(=O)(O)O)[C@@H](O)[C@H](O)[C@H](O)COP(=O)(O)O [FDP, Fructose 1,6-diphosphate]",effect on cell viability,"primary chicken neurons; FDP highest concentrations 50, 10 and 5 mM",toxic effects
same,effect on cell viability,"primary chicken neurons; FDP, other applied concentrations",no significant effects
"CS(C)(=O)=O [MSM, Methylsulfonylmethane]",concentration of MSM relative to DMSO achieving the same effects on cell viability,primary chicken neurons; MSM 0.1 μM vs DMSO 12.8 μM in combinations,128 times less concentrated
same,"effects on cell viability in the combinations, MSM vs DMSO",primary chicken neurons; MSM 0.0001 mM = 0.1 μM vs DMSO 12.8 μM = 0.0001%,same effects on cell viability
same,effect on cell viability,primary chicken neurons; MSM highest concentration 50 mM,minor negative effect
same,tolerance by cells when applied alone,"primary chicken neurons; MSM vs DMSO, each applied alone",tolerated MSM better than DMSO
same,effect on cell viability,"primary chicken neurons; MSM, all other applied concentrations, increase seen at 1 and 0.01 mM",no or even a slight increase in cell viability
"Oc1ccc(C=Cc2cc(O)cc(O)c2)cc1 [Resveratrol, resveratrol]",effect on cell viability,"primary chicken neurons; resveratrol 20, 10 and 5 μM, vs vehicle",positive effects on cell viability
same,effect on cell viability,"primary chicken neurons; resveratrol 50 and 100 μM, vs vehicle",toxic to cells
same,cell viability compared to resveratrol (20 μM) plus DMSO/FDP,primary chicken neurons; resveratrol alone 20 μM,even better effects on cell viability
